Experimental findings from article PMC9322122, “Development of (4-Phenylamino)quinazoline Alkylthiourea Derivatives as Novel NF-κB Inhibitors” (Pharmaceuticals, 2022) are described below.

The test system of data set [1] is dTHP−1 cells. The data set is described as follows: Cell viability of dTHP-1 cells with or without LPS. Format: cell-based, human. Conditions: in % (unit assumed). As for the experimental part: The HEK-293 (ATCC Cat# CRL-1573, RRID:CVCL_0045) and human monocytic THP−1 cells (ATCC Cat# TIB-202, RRID:CVCL_0006) were, respectively, cultured in DMEM and RPMI 1640 media supplemented with 10% fetal bovine serum, 2 mM L-glutamine, and 1× Antibiotic-Antimycotic at 37 °C in a humidified incubator with 5% CO2. THP−1 cells were differentiated by 100 nM phorbol-12-myristate-13-acetate (PMA) for 4 h and then rested for 44 h as dTHP−1 cells.
Cells were incubated with the WST-1 reagent (Thermo Fisher Scientific, Waltham, MA, USA) at 37 °C for 2 h. The cell viability was determined by spectrophotometer at 450 nm.
The dTHP−1 cells were treated with indicated compounds for 3 h and then activated with or without 100 ng/mL lipopolysaccharide (LPS; E. coli 0111:B4) for another 24 h. The levels of human IL-6 and TNFα in supernatants were measured by DuoSet® ELISA Development System (R&D systems, Minneapolis, MN, USA) according to the manufacturer’s protocol.

The target of data set [2] is T1, MAPK3 (ERK1) (Homo sapiens, UniProt P27361).
T1 construct: purchased Thermo Fisher Scientific (screening service)
T1 sequence (P27361 whole entry): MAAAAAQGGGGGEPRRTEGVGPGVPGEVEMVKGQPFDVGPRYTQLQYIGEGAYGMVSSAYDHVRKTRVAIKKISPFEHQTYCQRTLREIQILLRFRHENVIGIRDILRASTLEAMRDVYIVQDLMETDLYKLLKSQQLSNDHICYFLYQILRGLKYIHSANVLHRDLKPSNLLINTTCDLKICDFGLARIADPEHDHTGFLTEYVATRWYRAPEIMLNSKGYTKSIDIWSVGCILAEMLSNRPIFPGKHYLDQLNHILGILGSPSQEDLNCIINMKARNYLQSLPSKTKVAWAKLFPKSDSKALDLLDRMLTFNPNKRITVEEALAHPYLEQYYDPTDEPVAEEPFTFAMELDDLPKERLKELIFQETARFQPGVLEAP
As to the kind of experiment: Kinase selectivity profiling (Thermo Fisher). Format: biochemical. Conditions: ATP 100 μM, mean of duplicates. As for the experimental part:
(§1) Tabl e S1. Selectivity profiling of compound 19 ag ainst the protein kinases known to regulate the NF-kB pathway ki nase % Inhibiti on at 2 µMa […]
(§2) aScreenings were perf or med as a servi ce at Thermo Fisher Scientific at an ATP concentrat ion of 100 μM. n.i., no inhi biti on. Data represent mean values of duplicat es that differed by less t han 7%.

In data set [3] the target is T2, MAPK14 (p38 alpha) (Homo sapiens, UniProt Q16539).
T2 construct: purchased Thermo Fisher Scientific (screening service)
As to the kind of experiment: Kinase selectivity profiling (Thermo Fisher). Format: biochemical. The conditions noted are these: ATP 100 μM, mean of duplicates. As for the experimental part: as §1, §2

The target in data set [4] is T3, CHUK (IKK alpha) (Homo sapiens, UniProt O15111).
T3 construct: purchased Thermo Fisher Scientific (screening service)
T3 sequence (O15111 whole entry): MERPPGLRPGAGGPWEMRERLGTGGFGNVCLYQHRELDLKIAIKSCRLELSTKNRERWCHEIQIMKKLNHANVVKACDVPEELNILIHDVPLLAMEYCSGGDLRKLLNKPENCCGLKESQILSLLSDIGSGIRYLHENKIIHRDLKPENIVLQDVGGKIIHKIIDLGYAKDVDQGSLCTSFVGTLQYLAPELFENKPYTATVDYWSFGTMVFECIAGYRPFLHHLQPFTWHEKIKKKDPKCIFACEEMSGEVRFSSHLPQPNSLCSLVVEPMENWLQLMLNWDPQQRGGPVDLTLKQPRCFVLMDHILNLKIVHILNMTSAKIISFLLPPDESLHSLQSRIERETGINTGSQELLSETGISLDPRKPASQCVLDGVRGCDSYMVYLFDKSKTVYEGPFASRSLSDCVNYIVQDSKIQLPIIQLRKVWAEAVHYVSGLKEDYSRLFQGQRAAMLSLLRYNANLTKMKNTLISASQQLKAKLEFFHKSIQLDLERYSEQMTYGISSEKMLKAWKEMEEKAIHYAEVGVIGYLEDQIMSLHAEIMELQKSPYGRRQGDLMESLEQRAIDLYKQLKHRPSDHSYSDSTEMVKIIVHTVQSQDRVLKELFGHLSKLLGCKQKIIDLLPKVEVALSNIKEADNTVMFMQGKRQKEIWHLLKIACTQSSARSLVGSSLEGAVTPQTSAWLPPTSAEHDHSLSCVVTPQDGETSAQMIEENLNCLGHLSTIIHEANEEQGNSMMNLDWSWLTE
The data set is described as follows: Kinase selectivity profiling (Thermo Fisher). Format: biochemical. Conditions: ATP 100 μM, mean of duplicates. As for the experimental part:
as §1, §2

Data set [5] addresses T4, RPS6KA1 (RSK1) (Homo sapiens, UniProt Q15418).
T4 construct: purchased Thermo Fisher Scientific (screening service)
As to the kind of experiment: Kinase selectivity profiling (Thermo Fisher). In kind it is biochemical. The conditions noted are these: ATP 100 μM, mean of duplicates. As for the experimental part:
as §1, §2

For data set [6], the target named is T5, IRAK1 (Homo sapiens, UniProt P51617).
T5 construct: purchased Thermo Fisher Scientific (screening service)
T5 sequence (P51617 whole entry): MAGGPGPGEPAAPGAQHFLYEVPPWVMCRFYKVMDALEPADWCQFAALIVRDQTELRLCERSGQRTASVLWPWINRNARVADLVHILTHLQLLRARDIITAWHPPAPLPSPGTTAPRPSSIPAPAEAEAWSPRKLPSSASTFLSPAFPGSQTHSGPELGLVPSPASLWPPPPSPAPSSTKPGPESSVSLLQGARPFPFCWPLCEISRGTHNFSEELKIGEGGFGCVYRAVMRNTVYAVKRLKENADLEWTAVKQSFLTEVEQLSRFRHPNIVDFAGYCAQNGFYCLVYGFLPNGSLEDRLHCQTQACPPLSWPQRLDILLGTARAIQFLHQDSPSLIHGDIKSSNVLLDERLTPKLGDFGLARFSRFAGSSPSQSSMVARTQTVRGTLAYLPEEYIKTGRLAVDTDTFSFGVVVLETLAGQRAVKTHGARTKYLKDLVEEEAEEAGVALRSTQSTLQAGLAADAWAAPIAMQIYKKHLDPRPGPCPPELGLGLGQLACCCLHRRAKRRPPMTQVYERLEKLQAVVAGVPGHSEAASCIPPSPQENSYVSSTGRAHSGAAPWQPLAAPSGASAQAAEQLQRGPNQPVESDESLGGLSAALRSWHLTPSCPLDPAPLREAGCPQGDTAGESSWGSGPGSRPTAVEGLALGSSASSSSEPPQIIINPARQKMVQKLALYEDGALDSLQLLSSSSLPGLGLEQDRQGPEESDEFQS
The data set is described as follows: Kinase selectivity profiling (Thermo Fisher). Format: biochemical. Conditions: ATP 100 μM, mean of duplicates. As for the experimental part:
as §1, §2

For data set [7], the target named is T6, IKBKB (IKK beta) (Homo sapiens, UniProt O14920).
T6 construct: purchased Thermo Fisher Scientific (screening service)
As to the kind of experiment: Kinase selectivity profiling (Thermo Fisher). Format: biochemical. The conditions noted are these: ATP 100 μM, mean of duplicates. As for the experimental part:
as §1, §2

In data set [8] the target is T7, PRKCI (PKC iota) (Homo sapiens, UniProt P41743).
T7 construct: purchased Thermo Fisher Scientific (screening service)
The data set is described as follows: Kinase selectivity profiling (Thermo Fisher). In kind it is biochemical. The conditions noted are these: ATP 100 μM, n.i. = no inhibition. As for the experimental part:
as §1, §2

Data set [9] deals with T8, IRAK4 (Homo sapiens, UniProt Q9NWZ3).
T8 construct: purchased Thermo Fisher Scientific (screening service)
As to the kind of experiment: Kinase selectivity profiling (Thermo Fisher). In kind it is biochemical. The conditions noted are these: ATP 100 μM, mean of duplicates. As for the experimental part:
as §1, §2

For data set [10], the target named is T9, MAP3K7/MAP3K7IP1 (TAK1-TAB1) (Homo sapiens, UniProt O43318).
T9 construct: purchased Thermo Fisher Scientific (screening service)
T9 sequence (O43318 with tags, fused parts or gaps limits assumed): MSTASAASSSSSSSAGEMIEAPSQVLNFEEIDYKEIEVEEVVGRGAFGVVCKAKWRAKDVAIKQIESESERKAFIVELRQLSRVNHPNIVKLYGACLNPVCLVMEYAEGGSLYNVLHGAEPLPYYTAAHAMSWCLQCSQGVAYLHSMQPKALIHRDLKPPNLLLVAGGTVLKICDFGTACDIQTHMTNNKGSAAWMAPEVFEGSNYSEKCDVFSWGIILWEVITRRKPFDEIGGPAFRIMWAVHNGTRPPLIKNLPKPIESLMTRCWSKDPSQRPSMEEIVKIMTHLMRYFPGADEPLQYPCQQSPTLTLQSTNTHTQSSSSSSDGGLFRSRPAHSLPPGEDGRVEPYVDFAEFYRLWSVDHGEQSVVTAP
As to the kind of experiment: Kinase selectivity profiling (Thermo Fisher). Format: biochemical. Conditions: ATP 100 μM, mean of duplicates. As for the experimental part:
as §1, §2

Data set [11] concerns the target T10, MAP3K14 (NIK) (Homo sapiens, UniProt Q99558).
T10 construct: purchased Thermo Fisher Scientific (screening service)
The data set is described as follows: Kinase selectivity profiling (Thermo Fisher). Format: biochemical. The conditions noted are these: ATP 100 μM, mean of duplicates. As for the experimental part: as §1, §2

The target of data set [12] is T11, GSK3B (GSK3 beta) (Homo sapiens, UniProt P49841).
T11 construct: purchased Thermo Fisher Scientific (screening service)
T11 sequence (P49841 whole entry): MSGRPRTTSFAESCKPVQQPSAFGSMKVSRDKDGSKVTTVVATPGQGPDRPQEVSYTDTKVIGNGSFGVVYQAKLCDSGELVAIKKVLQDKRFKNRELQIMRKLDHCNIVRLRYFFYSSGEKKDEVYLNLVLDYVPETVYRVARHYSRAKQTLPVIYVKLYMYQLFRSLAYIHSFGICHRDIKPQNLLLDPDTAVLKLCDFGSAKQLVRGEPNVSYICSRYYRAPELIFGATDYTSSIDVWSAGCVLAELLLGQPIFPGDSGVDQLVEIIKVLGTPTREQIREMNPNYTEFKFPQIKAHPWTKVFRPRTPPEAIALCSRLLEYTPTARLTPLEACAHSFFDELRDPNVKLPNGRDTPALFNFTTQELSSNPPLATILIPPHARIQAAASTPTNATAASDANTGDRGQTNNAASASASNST
The data set is described as follows: Kinase selectivity profiling (Thermo Fisher). In kind it is biochemical. Conditions: ATP 100 μM, mean of duplicates. As for the experimental part: as §1, §2

The target of data set [13] is T12, PRKCZ (PKC zeta) (Homo sapiens, UniProt Q05513).
T12 construct: purchased Thermo Fisher Scientific (screening service)
As to the kind of experiment: Kinase selectivity profiling (Thermo Fisher). Format: biochemical. The conditions noted are these: ATP 100 μM, mean of duplicates. As for the experimental part: as §1, §2

Data set [14] addresses T13, IKBKE (IKK epsilon) (Homo sapiens, UniProt Q14164).
T13 construct: purchased Thermo Fisher Scientific (screening service)
As to the kind of experiment: Kinase selectivity profiling (Thermo Fisher). Conditions: ATP 100 μM, mean of duplicates. Format: biochemical. As for the experimental part:
as §1, §2

The target of data set [15] is T14, RIPK2 (Homo sapiens, UniProt O43353).
T14 construct: purchased Thermo Fisher Scientific (screening service)
T14 sequence (O43353 whole entry): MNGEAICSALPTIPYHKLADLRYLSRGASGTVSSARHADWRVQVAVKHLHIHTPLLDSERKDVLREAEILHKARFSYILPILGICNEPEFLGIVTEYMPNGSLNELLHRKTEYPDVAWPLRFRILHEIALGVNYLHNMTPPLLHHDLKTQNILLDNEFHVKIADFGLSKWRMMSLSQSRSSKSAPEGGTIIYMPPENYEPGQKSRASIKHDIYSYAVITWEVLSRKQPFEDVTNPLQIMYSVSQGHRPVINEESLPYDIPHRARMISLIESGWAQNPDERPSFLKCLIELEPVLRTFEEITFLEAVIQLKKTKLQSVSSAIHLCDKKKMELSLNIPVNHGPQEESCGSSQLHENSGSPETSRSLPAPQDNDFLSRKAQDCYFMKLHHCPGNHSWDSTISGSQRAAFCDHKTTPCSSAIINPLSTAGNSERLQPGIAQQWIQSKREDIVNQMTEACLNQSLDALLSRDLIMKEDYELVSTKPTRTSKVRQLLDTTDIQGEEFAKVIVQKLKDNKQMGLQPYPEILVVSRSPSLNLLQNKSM
The data set is described as follows: Kinase selectivity profiling (Thermo Fisher). Format: biochemical. The conditions noted are these: ATP 100 μM, mean of duplicates. As for the experimental part: as §1, §2

The test system of data set [16] is protein kinases known to regulate the NF-κB pathway. As to the kind of experiment: Kinase screening panel as a whole. The conditions noted are these: Table S1. In kind it is biochemical.
Excerpt: While the EGFR kinase inhibitory activity was largely abolished here, it could not be excluded that our modifications may have generated affinity to another kinase. The most important kinases to be checked were those reported to phosphorylate p65-Ser468 in different cell types, comprising GSK3β, IKKβ, and IKKɛ [45, 46, 47]. In addition, all the kinases described in the literature to control the canonical and non-canonical pathway of NF-κB activation were also included in the screening panel. […] Instead, the inhibitory effect of 19 on the Ser468 phosphorylation might be indirect, e.g., through interference with proteins complexes regulating the Ser468 kinase activity.
as §1, §2

Data set [17] has as its target Recombinant EGFR kinase (Homo sapiens, UniProt P00533). As to the kind of experiment: Recombinant EGFR kinase activity. Format: biochemical. Conditions: read-out: Recombinant EGFR Kinase Activity (%inh at 150 nM).

T13 sequence (Q14164 whole entry): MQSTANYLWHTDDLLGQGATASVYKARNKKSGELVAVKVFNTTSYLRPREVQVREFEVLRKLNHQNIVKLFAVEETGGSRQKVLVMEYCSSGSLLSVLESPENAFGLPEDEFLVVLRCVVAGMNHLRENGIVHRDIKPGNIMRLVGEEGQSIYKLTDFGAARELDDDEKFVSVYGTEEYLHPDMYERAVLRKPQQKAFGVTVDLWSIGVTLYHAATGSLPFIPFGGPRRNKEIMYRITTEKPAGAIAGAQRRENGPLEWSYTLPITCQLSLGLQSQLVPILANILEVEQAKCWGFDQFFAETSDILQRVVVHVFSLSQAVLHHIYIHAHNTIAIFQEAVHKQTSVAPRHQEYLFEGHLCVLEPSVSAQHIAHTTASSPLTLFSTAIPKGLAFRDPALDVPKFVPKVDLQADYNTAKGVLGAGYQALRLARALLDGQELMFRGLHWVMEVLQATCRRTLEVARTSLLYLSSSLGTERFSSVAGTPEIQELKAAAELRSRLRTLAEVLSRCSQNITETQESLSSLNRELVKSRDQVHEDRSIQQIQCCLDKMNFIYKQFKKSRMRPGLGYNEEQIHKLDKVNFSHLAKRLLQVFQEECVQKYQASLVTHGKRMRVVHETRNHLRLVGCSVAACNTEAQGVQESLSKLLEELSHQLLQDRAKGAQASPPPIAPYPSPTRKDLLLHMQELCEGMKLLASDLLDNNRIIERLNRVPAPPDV
T10 sequence (Q99558 whole entry): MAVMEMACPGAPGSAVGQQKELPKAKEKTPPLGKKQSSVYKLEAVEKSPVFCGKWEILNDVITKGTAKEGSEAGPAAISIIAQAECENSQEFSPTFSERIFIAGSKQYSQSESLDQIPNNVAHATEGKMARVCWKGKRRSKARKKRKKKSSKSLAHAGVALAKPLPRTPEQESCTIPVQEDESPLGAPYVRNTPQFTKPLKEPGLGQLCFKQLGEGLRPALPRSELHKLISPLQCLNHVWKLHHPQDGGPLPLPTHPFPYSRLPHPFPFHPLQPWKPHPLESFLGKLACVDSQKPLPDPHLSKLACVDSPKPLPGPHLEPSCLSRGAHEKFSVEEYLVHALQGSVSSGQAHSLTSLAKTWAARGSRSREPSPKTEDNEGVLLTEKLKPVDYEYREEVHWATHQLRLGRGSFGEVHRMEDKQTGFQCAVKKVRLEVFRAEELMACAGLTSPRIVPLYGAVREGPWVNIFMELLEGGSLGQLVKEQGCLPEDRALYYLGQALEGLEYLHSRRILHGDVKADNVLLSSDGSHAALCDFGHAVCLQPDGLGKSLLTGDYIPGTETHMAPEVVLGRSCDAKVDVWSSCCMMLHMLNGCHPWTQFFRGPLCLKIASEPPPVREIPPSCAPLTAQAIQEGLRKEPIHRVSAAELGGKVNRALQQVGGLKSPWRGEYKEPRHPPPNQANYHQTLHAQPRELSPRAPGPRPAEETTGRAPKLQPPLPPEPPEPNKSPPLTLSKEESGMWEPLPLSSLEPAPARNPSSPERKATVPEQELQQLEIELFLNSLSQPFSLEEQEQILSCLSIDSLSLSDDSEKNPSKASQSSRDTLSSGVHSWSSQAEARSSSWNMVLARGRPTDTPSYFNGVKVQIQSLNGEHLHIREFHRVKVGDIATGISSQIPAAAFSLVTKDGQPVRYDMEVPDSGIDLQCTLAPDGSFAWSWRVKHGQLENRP

As for `S=C(Nc1ccc2ncnc(Nc3cccc(Cl)c3)c2c1)NC1CCCC1` [Compound 19, 1-(4-((3-Chlorophenyl)amino)quinazolin-6-yl)-3-cyclopentylthiourea], the “Cell viability of dTHP-1 cells, 5 μM, LPS” value in data set [1] (5 μM (so in the source), LPS 100 ng/mL for 24 h) amounted to 4.9 ± 0.38. Also, in data set [1] (5 μM (so in the source), no LPS), the “Cell viability of dTHP-1 cells, 5 μM, without LPS” value is 30.0 ± 1.3. Further, in data set [1] (7.5 μM, no LPS), the “Cell viability of dTHP-1 cells, 7.5 μM, without LPS” value was determined as 60.3 ± 0.85. In addition, the inhibition at 2 µM in data set [2] is 2%; in data set [3] it was 4%; in [4], 6%; in data set [5], 1%; in data set [6], 2%; in data set [7], 3%. The inhibition at 2 µM in [9] turned out to be 5%; in [10], 3%; in data set [11], 9%; in data set [12], 4%; in data set [13], 3%; in [14], 3%. In data set [15], the inhibition at 2 µM came out at 29%. In [8], the “% Inhibition at 2 µM, PRKCI (PKC iota)” value is listed as “n.i”. Moreover, in [16], the “Inhibition of kinases involved in NF-κB activation (panel)” value is given as “did not appreciably inhibit any of these kinases”. In data set [17], the inhibition at 0.15 µM came out at 23%.
